One test addresses T1, Human PKMYT1 (Homo sapiens, UniProt Q99640).
T1 construct: Human PKMYT1 75-362 was cloned as a TEV cleavable 6xHis fusion; 6xHis (TEV cleavable) (cleaved yes); made in house; host or cells: bacterial cells
T1 sequence (Q99640 75-362): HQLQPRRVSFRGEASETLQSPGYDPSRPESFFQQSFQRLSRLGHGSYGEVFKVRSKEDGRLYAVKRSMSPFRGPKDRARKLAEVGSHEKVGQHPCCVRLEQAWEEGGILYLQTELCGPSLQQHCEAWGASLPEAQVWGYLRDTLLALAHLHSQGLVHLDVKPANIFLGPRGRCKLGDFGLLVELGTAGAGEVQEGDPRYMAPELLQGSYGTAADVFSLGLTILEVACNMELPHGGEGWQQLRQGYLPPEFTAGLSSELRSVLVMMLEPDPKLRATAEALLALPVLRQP
In words: PKMYT1 biochemical ADP-Glo enzymatic assay. Conditions: ADP-Glo. The method in brief: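 IC50 derived from luminescence (ADP-Glo Max) after PKMYT1 kinase domain, 15 nM, turned over 500 µM ATP for 60 min at 26 °C. Buffer contained 10 mM MgCl2, 1 mM EGTA and 0.01% Brij-35 at pH 7.5.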

The next test addresses T2, WEE1 (Homo sapiens, UniProt P30291).
T2 construct: purchased Thermo Fisher PR7373A
In words: Selectivity versus WEE1 assay (ADP-Glo enzymatic assay). Format: biochemical. As to conditions: for IC50: ADP-Glo; for PKMYT1 vs. WEE1 selectivity: fold difference in selectivity for PKMYT1 over WEE1. In short, it runs like this:
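Inhibition is measured as reduced ADP production, detected by luminescence with ADP-Glo, after enzyme (15 nM) and 30 µM ATP react for 60 min at 26° C in 1% DMSO-containing HEPES buffer, pH 7.5. Data are accepted only if replicate IC50s fall within 3-fold and r2 exceeds 0.9.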

The mark [1] stands for this setting: 15 nM PKMYT1 kinase domain, 500 µM ATP, 60 minutes at 26° C., banded.
The mark [2] stands for this setting: 15 nM WEE1, 60 minutes at 26° C., banded.
Where [3] appears, read: banded, ">N" = at least in this band but could be higher.
[4] abbreviates: PKMYT1 kinase domain 15 nM, banded values.

T2 sequence (P30291 whole entry): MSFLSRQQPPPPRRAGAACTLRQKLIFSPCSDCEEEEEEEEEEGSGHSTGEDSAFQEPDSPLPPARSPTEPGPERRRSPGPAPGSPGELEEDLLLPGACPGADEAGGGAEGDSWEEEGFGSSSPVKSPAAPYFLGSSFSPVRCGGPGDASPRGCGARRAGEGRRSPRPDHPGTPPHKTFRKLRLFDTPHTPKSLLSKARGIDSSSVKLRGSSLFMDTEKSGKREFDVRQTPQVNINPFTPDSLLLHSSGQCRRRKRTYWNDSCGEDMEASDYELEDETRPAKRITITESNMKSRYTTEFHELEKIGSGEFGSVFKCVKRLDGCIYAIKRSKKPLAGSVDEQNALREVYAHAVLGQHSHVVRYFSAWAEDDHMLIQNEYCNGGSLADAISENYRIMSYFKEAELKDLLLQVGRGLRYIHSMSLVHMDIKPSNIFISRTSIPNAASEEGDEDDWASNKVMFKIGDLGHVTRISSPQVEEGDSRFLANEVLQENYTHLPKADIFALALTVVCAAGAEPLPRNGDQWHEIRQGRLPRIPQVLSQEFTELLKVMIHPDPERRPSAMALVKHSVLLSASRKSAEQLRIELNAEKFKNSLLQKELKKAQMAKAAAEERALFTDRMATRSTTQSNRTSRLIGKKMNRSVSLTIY

`Cc1cc(Nc2ccc(F)cc2)nnc1Nc1ncc(C(=O)Nc2c(C)ccc(O)c2C)s1` [BAA-324, 2-((6-((4-fluorophenyl)amino)-4-methylpyridazin-3-yl)amino)-N-(3-hydroxy-2,6-dimethylphenyl)thiazole-5-carboxamide]: the IC50 was 50 to 1000 nM against Human PKMYT1 (setting [1]) and greater than 11000 nM on WEE1 (setting [2]). The “PKMYT1 vs. WEE1 selectivity” value at WEE1 (setting [3]) is “X (100-<1000 fold)”.
For `Cc1ccc(O)c(C)c1NC(=O)c1cnc(Nc2cc(C(=O)N(C)C)n(C)n2)s1` [BAA-120, 2-[[5-(dimethylcarbamoyl)-1-methyl-pyrazol-3-yl]amino]-N-(3-hydroxy-2,6-dimethyl-phenyl)thiazole-5-carboxamide], the results for the IC50 against Human PKMYT1 (setting [1]) and against WEE1 (setting [2]) were 50 to 1000 nM and 1000 to 11000 nM, respectively. In addition, on WEE1 (setting [3]), the “PKMYT1 vs. WEE1 selectivity” value is given as “X (100-<1000 fold)”.
Consider `Cc1ccc(O)c(C)c1NC(=O)c1cnc(Nc2ccn(CC(=O)N3CCN(C(C)C)CC3)n2)s1` [BAA-178], for which the IC50 on Human PKMYT1 (setting [1]) was 50 to 1000 nM; against WEE1 (setting [2]), greater than 11000 nM. In addition, the “PKMYT1 vs. WEE1 selectivity” value at WEE1 (setting [3]) is “X (100-<1000 fold)”.
For the compound `Cc1ccc(O)c(C)c1NC(=O)c1cnc(Nc2cc(C)n(CC(C)O)n2)s1` (stereo not drawn) [BAA-540, N-(3-hydroxy-2,6-dimethylphenyl)-2-((1-(2-hydroxypropyl)-5-methyl-1H-pyrazol-3-yl)amino)thiazole-5-carboxamide], the IC50 against Human PKMYT1 (setting [4]) is less than 50 nM; on WEE1 (WEE1 15 nM, banded values) it was 1000 to 11000 nM. Besides, the “PKMYT1 vs. WEE1 selectivity” value at WEE1 (banded) is on record as “X (100-<1000 fold)”.
In the case of `Cc1ccc(O)c(C)c1NC(=O)c1cnc(Nc2ccn([C@@H]3CCN(C(=O)C(C)(C)c4ccccc4)C3)n2)s1` [BAA-094], the IC50 was 50 to 1000 nM at Human PKMYT1 (setting [1]) and greater than 11000 nM against WEE1 (setting [2]). Besides, the “PKMYT1 vs. WEE1 selectivity” value at WEE1 (setting [3]) was “>X (100-<1000 fold)”.
For `Cc1ccc(O)c(C)c1NC(=O)c1cnc(NCCCN2CCS(=O)(=O)CC2)s1` [BAA-072, 2-[3-(1,1-dioxo-1,4-thiazinan-4-yl)propylamino]-N-(3-hydroxy-2,6-dimethyl-phenyl)thiazole-5-carboxamide] the same measures were 50 to 1000 nM, greater than 11000 nM and “>X (100-<1000 fold)”.
On to `Cc1ccc(O)c(C)c1NC(=O)c1cnc(Nc2ccnn2C)s1` [BAA-010, N-(3-hydroxy-2,6-dimethyl-phenyl)-2-[(2-methylpyrazol-3-yl)amino]thiazole-5-carboxamide], for which the values for the IC50 at Human PKMYT1 (setting [1]) and at WEE1 (setting [2]) were 50 to 1000 nM and greater than 11000 nM, respectively. For the same compound, at WEE1 (setting [3]), the “PKMYT1 vs. WEE1 selectivity” value is “Y (1000-5000 fold)”.
Take `Cc1ccc(O)c(C)c1NC(=O)c1cnc(Nc2nn(C)c3cccnc23)s1` [BAA-210, N-(3-Hydroxy-2,6-dimethyl-phenyl)-2-[(1-methylpyrazolo[4,3-b]pyridin-3-yl)amino]thiazole-5-carboxamide]: the IC50 at Human PKMYT1 (setting [1]) was less than 50 nM; against WEE1 (setting [2]) it was greater than 11000 nM. Moreover, at WEE1 (setting [3]), the “PKMYT1 vs. WEE1 selectivity” value was “Z (>5000 fold)”.
The like results for `Cc1ccc(O)c(C)c1NC(=O)c1cnc(NCc2ccncc2)s1` [BAA-350, N-(3-hydroxy-2,6-dimethylphenyl)-2-((pyridin-4-ylmethyl)amino) thiazole-5-carboxamide] were, in that order, 50 to 1000 nM, greater than 11000 nM and “Y (1000-5000 fold)”.
Regarding `CCOC(=O)Cn1ccc(Nc2ncc(C(=O)Nc3c(C)ccc(O)c3C)s2)n1` [BAA-023], the results for the IC50 on Human PKMYT1 (setting [1]) and on WEE1 (setting [2]) were less than 50 nM and 1000 to 11000 nM, respectively. Further, at WEE1 (setting [3]), the “PKMYT1 vs. WEE1 selectivity” value is recorded as “X (100-<1000 fold)”.
As to `Cc1ccc(O)c(C)c1NC(=O)c1cnc(Nc2cccc3ccoc23)s1` [BAA-531, 2-(benzofuran-7-ylamino)-N-(3-hydroxy-2,6-dimethylphenyl)thiazole-5-carboxamide], the IC50 at Human PKMYT1 (setting [4]) was 50 to 1000 nM; at WEE1 (WEE1 15 nM, banded values), greater than 11000 nM. Also, the “PKMYT1 vs. WEE1 selectivity” value on WEE1 (banded) was “Y (1000-5000 fold)”.
Take `Cc1ccc(O)c(C)c1NC(=O)c1cnc(Nc2cccc(C(=O)N3CC4CCC3C4)c2)s1` (stereo not drawn) [BAA-289, 2-((3-(2-azabicyclo[2.2.1]heptane-2-carbonyl)phenyl)amino)-N-(3-hydroxy-2,6-dimethylphenyl)thiazole-5-carboxamide]: the IC50 against Human PKMYT1 (setting [1]) is less than 50 nM; against WEE1 (setting [2]) it was 1000 to 11000 nM. For the same compound, the “PKMYT1 vs. WEE1 selectivity” value on WEE1 (setting [3]) is “X (100-<1000 fold)”.
In the case of `CCc1c(O)ccc(C)c1NC(=O)c1cnc(Nc2ccn(C)n2)s1` [BAA-469, N-(2-Ethyl-3-hydroxy-6-methylphenyl)-2-((1-methyl-1H-pyrazol-3-yl)amino)thiazole-5-carboxamide], the IC50 against Human PKMYT1 (setting [4]) was 50 to 1000 nM; against WEE1 (WEE1 15 nM, banded values), greater than 11000 nM. Besides, on WEE1 (banded), the “PKMYT1 vs. WEE1 selectivity” value was “X (100-<1000 fold)”.
With `Cc1ccc(O)c(C)c1NC(=O)c1cnc(Nc2ncccc2Cl)s1` [BAA-400, 2-((3-chloropyridin-2-yl)amino)-N-(3-hydroxy-2,6-dimethylphenyl)thiazole-5-carboxamide], the IC50 was less than 50 nM at Human PKMYT1 (setting [4]) and 1000 to 11000 nM against WEE1 (WEE1 15 nM, banded values). Also, the “PKMYT1 vs. WEE1 selectivity” value at WEE1 (banded) is given as “X (100-<1000 fold)”.
Regarding `Cc1ccc(O)c(C)c1NC(=O)c1cnc(NCC2CCN(C(=O)CC(C)(C)O)CC2)s1` [BAA-215, N-(3-hydroxy-2,6-dimethyl-phenyl)-2-[[1-(3-hydroxy-3-methyl-butanoyl)-4-piperidyl]methylamino]thiazole-5-carboxamide], the IC50 is 50 to 1000 nM at Human PKMYT1 (setting [1]) and greater than 11000 nM at WEE1 (setting [2]). Also, the “PKMYT1 vs. WEE1 selectivity” value on WEE1 (setting [3]) was “>X (100-<1000 fold)”.
For the compound `Cc1cn(CC(=O)N(C)CCO)nc1Nc1ncc(C(=O)Nc2c(C)ccc(O)c2C)s1` [BAA-524, N-(3-Hydroxy-2.6-dimethylphenyl)-2-((1-(2-((2-hydroxyethyl)(methyl)amino)-2-oxoethyl)-4-methyl-1H-pyrazol-3-yl)amino)thiazole-5-carboxamide], the IC50 is less than 50 nM against Human PKMYT1 (setting [4]) and greater than 11000 nM on WEE1 (WEE1 15 nM, banded values). Moreover, the “PKMYT1 vs. WEE1 selectivity” value on WEE1 (banded) is “Y (1000-5000 fold)”.
For the compound `Cc1ccc(O)c(C)c1NC(=O)c1cnc(Nc2cc(C(=O)N3CCCC3)n(C)n2)s1` [BAA-544, N-(3-hydroxy-2,6-dimethylphenyl)-2-((1-methyl-5-(pyrrolidine-1-carbonyl)-1H-pyrazol-3-yl)amino)thiazole-5-carboxamide], the IC50 fell in the range of 50 to 1000 nM against Human PKMYT1 (setting [4]) and 1000 to 11000 nM against WEE1 (WEE1 15 nM, banded values). The “PKMYT1 vs. WEE1 selectivity” value on WEE1 (banded) is listed as “W (10-<100 fold)”.
As for `Cc1ccc(O)c(C)c1NC(=O)c1cnc(Nc2ccn(CC(=O)N3CCNC(=O)C3)n2)s1` [BAA-150], the half-inhibitory concentration (IC50) against Human PKMYT1 (setting [1]) is less than 50 nM; on WEE1 (setting [2]) it was greater than 11000 nM. Moreover, the “PKMYT1 vs. WEE1 selectivity” value at WEE1 (setting [3]) was “X (100-<1000 fold)”.
For `Cc1ccc(O)c(C)c1NC(=O)c1cnc(Nc2ccn(C(C)C(=O)N3CCN(C)CC3)n2)s1` (stereo not drawn) [BAA-534, N-(3-hydroxy-2,6-dimethylphenyl)-2-((1-(1-(4-methylpiperazin-1-yl)-1-oxopropan-2-yl)-1H-pyrazol-3-yl)amino)thiazole-5-carboxamide], the IC50 is less than 50 nM against Human PKMYT1 (setting [4]) and greater than 11000 nM against WEE1 (WEE1 15 nM, banded values). In addition, the “PKMYT1 vs. WEE1 selectivity” value on WEE1 (banded) is recorded as “Y (1000-5000 fold)”.
As to `Cc1ccc(O)c(C)c1NC(=O)c1cnc(Nc2nccs2)s1` [BAA-257, N-(3-hydroxy-2,6-dimethylphenyl)-2-(thiazol-2-ylamino)thiazole-5-carboxamide], the IC50 was less than 50 nM on Human PKMYT1 (setting [1]) and greater than 11000 nM against WEE1 (setting [2]). Also, the “PKMYT1 vs. WEE1 selectivity” value at WEE1 (setting [3]) was “Y (1000-5000 fold)”.
Take `Cc1ccc(O)c(C)c1NC(=O)c1cnc(Nc2ccn([C@@H]3CCN(C(=O)Cn4cccn4)C3)n2)s1` [BAA-103, N-(3-hydroxy-2,6-dimethyl-phenyl)-2-[1-[(3R)-1-(2-pyrazol-1-ylacetyl)pyrrolidin-3-yl]pyrazol-3-yllamino]thiazole-5-carboxamide]: the concentration for half-maximal inhibition (IC50) against Human PKMYT1 (setting [1]) is 50 to 1000 nM; against WEE1 (setting [2]), greater than 11000 nM. At WEE1 (setting [3]), the “PKMYT1 vs. WEE1 selectivity” value is “>X (100-<1000 fold)”.
As for `Cc1cc(C)c(NC(=O)c2cnc(Nc3ccn(CC(=O)N4CCCC4)n3)s2)c(C)c1O` [BAA-516, N-(3-hydroxy-2,4,6-trimethylphenyl)-2-((1-(2-oxo-2-(pyrrolidin-1-yl)ethyl)-1H-pyrazol-3-yl)amino)thiazole-5-carboxamide], the half-inhibitory concentration (IC50) at Human PKMYT1 (setting [4]) is 50 to 1000 nM; against WEE1 (WEE1 15 nM, banded values) it was greater than 11000 nM. The “PKMYT1 vs. WEE1 selectivity” value on WEE1 (banded) is reported as “X (100-<1000 fold)”.
On to `Cc1ccc(O)c(C)c1NC(=O)c1cnc(Nc2cn(CC(=O)N3CCCC3)nc2C)s1` [BAA-558, N-(3-hydroxy-2,6-dimethylphenyl)-2-((3-methyl-1-(2-oxo-2-(pyrrolidin-1-yl)ethyl)-1H-pyrazol-4-yl)amino)thiazole-5-carboxamide], for which the IC50 on Human PKMYT1 (setting [4]) is 50 to 1000 nM; against WEE1 (WEE1 15 nM, banded values), greater than 11000 nM. In addition, on WEE1 (banded), the “PKMYT1 vs. WEE1 selectivity” value is reported as “Y (1000-5000 fold)”.
Turning to `Cc1ccc(O)c(C)c1NC(=O)c1cnc(Nc2ccc(C(C)(C)C)cc2)s1` [BAA-281, 2-((4-(tert-butyl)phenyl)amino)-N-(3-hydroxy-2,6-dimethylphenyl)thiazole-5-carboxamide], the values for the IC50 against Human PKMYT1 (setting [1]) and against WEE1 (setting [2]) were 50 to 1000 nM and greater than 11000 nM, respectively. The “PKMYT1 vs. WEE1 selectivity” value on WEE1 (setting [3]) was “X (100-<1000 fold)”.

(Values after patent US20260297042A1, “BIARYLAMIDE DERIVATIVES AND THEIR USE AS PKMYT1 INHIBITORS” (CANCER RESEARCH TECHNOLOGY LIMITED, priority 2023, published 2026).)
